The record followed here is patent US20200390767A1, “Formulations of 4-(7-Hydroxy-2-isopropyl-4-oxo-4H-quinazolin-3-yl)-benzonitrile” (NOVARTIS AG, priority 2019, published 2020).

Values joined by “and” are separate entries in the source; they are usually repeats but may differ in a detail not shown here. Identical values can stand only once.

In one data set the test system is epithelial wound. The data set can be described thus: PRK clinical study, size of epithelial defect by slit lamp exam. The data set is classed as in vivo, human. The source says:
(§1) Adverse events and serious adverse events included an assessment of both systemic and ocular assessments. Systemic safety assessments included regular assessments of height and weight, vital signs, reporting medication errors including misuse/abuse, pregnancy reporting and early phase safety monitoring. The misuse/abuse, pregnancy reporting and early phase safety monitoring were not assessed for the study. Ocular safety assessments included the following: • Best-corrected visual acuity (BCVA) and uncorrected visual acuity (UCVA): Was measured at each visit using an ETDRS visual acuity chart at 4 meters (13 feet) or 1 meter (for patients that cannot read the 4 meter chart). The BCVA scoring was done based on the number of correctly read letters plus 30. If visual acuity was so poor that the patient could not read any of the largest letters at 1 meter, count fingers and hand movement vision and light perception was tested. • Intraocular Pressure (TOP): IOP measurements were conducted with applanation tonometry or Tonopen. • Dilated fundus exam: The dilated fundus examination included ophthalmoscopic assessments of the vitreous, retina/macula/choroid, and optic nerve. Evaluations for retinal tear/detachment, retinal hemorrhage, vitreous hemorrhage density, vitreous haze grading and abnormal findings were done and scored according to grading criteria. • Ocular hyperemia: Conjunctival redness of the bulbar conjunctiva in each eye at the slit lamp according to the McMonnies redness scale was graded. […] By adjusting the calibrated slit beam width and height, the maximum horizontal (wound width) and vertical dimensions (wound height) of the surgical epithelial wound was estimated. The evaluation was performed until wound closure and report of wound size as 0 horizontal and 0 vertical dimensions. • Slit-lamp biomicroscopy: Ocular signs (eyelids/conjunctiva, cornea, lens, and iris/anterior chamber) was assessed in both eyes by slit lamp biomicroscopy according to the grading criteria. • Blink rate: A blink was defined as a bilateral paroxysmal closure of the eyelids (duration <1 second) in the absence of a provoking external stimulus. Each blink assessment lasted for 2 min (or as close to 2 minutes as possible with minimum time 1 minute) and the obtained blink rate was averaged to calculate blink rate in blinks/min. • Tear production (Schirmer's test without anesthesia): The test was performed without anesthetic in both eyes simultaneously. Tear secretion was measured in millimeters of the length of strip wetted by tears. […] The strip was wetted with 1 drop of sterile saline and flicked to remove excess saline. The patient blinked several times to ensure dispersion of the dye throughout the tear film prior to grading on a scale of 0-3 (0=Normal, No staining; 1=Mild, Superficial stippling micropunctate staining; 2=Moderate, Macropunctate staining with some coalescent areas and 3=Severe, Numerous coalescent macropunctate areas and/or patches) for each of 5 zones (central plus 4 quadrants).
Size of epithelial defect by slit lamp exam: In order to assess the rate of wound healing after administration of compound I, the size of the epithelial defect in both compound I and Vehicle treated populations was measured. The elliptical area of epithelial wound size was calculated as follows: Area (mm2)=width×height×pi, from the width and height of the epithelial defect measured at the slit lamp. The difference in epithelial wound area between compound I and Vehicle was not noticeably different at any time point except at Day 2 post-PRK surgery (all p-values for the difference in area was >0.35). On Day 2 (24 hours post-operative), the difference in average epithelial defect area between patients treated with compound I vs. Vehicle was 11.23 mm^2 (p value=0.034). This difference was not clinically significant in the immediate post-operative period. […]

Another data set concerns PRK surgery patients. The data set can be described thus: PRK clinical study, adverse events. The data set is classed as in vivo, human.
Excerpt: Safety assessments consisted of collecting all AEs, SAES, with their severity and relationship to study drug. Only signs and symptoms greater than the listed ranges of either severity or duration were reported as AEs.
as §1
A total of 18 AEs were reported in 10 patients (25% of the 40 enrolled patients) of which twelve occurred after treatment with compound I, five after treatment with Vehicle and one occurred in one patient prior to dosing of the study drug. All AEs were either mild or moderate in severity.

`CC(C)c1nc2cc(O)ccc2c(=O)n1-c1ccc(C#N)cc1` [Compound I, 4-(7-hydroxy-2-isopropyl-4-oxo-4H-quinazolin-3-yl)-benzonitrile]: the “Epithelial Wound Size, Area, Difference compound I-Vehicle” value in the data set with epithelial wound (Day 1) is 2.98 (27.33) mm^2; with epithelial wound (Day 2) it was 11.23 mm^2 and 11.23 (32.30) mm^2; in the data set with epithelial wound (Day 3), 1.02 (8.78) mm^2; in the data set with epithelial wound (Day 4), 0.31 (2.11) mm^2; in the data set on epithelial wound (Day 8) it was 0.00 (0.00) mm^2. The “Epithelial Wound Size, Area, raw mean (SD)” value is given as 220.15 (32.26) mm^2 in the data set on epithelial wound (Day 1); 83.02 (32.08) mm^2 with epithelial wound (Day 2); 6.75 (12.66) mm^2 in the data set with epithelial wound (Day 3); 0.39 (2.04) mm^2 in the data set on epithelial wound (Day 4); 0.00 (0.00) mm^2 with epithelial wound (Day 8). The “wound healing compared to Vehicle” value in the data set on epithelial wound (human, in vivo) is on record as “no delay in wound healing”. For the same compound, the “deaths, SAEs, discontinuations due to AEs” value with PRK surgery patients (40 enrolled patients) was “no deaths or SAEs”. For the same compound, the “eyes (treatment periods) with AEs of moderate severity” value in the data set on PRK surgery patients (five AEs in four patients) is reported as “four”. Further, in the data set with PRK surgery patients (human, in vivo), the “patients who experienced an AE only during this treatment” value is “Five”. Besides, the “relation of ocular AEs to study drug” value in the data set with PRK surgery patients (human, in vivo) is on record as “None of the AEs were suspected to be related”. For the same compound, in the data set on PRK surgery patients (of 40 patients), the “patients who developed AEs after treatment” value is “Eight”. In the data set on PRK surgery patients (of a total of 18 AEs in 10 patients), the “number of AEs after treatment” value is on record as “twelve”. For the same compound, the “eyes with ocular AEs (mild severity)” value with PRK surgery patients (six ocular AEs in four patients) is listed as “three”. Moreover, the “eyes (treatment periods) with non-ocular AEs” value with PRK surgery patients (twelve non-ocular AEs in seven patients) was “six”.
